Source: patent US20070049564A1 (Wyeth, priority 2005, published 2007)
In brackets after ≈: the same amount, converted by molar mass. Where two headings read alike, the source gives them in different places.

Experiments:
[1] = system: S. pneumoniae* GC 4465; assay: MIC, broth microdilution; settings: Streptococcus pneumoniae, S. pneumoniae* GC 4465
[2] = system: E. coli GC 2234; assay: MIC, broth microdilution; settings: Escherichia coli, GC2234, E. coli GC 2234
[3] = system: S. agalactiae GC 4564; assay: MIC, broth microdilution; settings: Streptococcus agalactiae, GC4564, S. agalactiae GC 4564
[4] = system: E. coli GC 2231; assay: MIC, broth microdilution; settings: Escherichia coli, GC2231, E. coli GC 2231
[5] = system: E. coli GC 4559; assay: MIC, broth microdilution; settings: Escherichia coli, GC4559, E. coli GC 4559
[6] = system: E. faecium GC 4556; assay: MIC, broth microdilution; settings: Enterococcus faecium, GC4556, E. faecium GC 4556
[7] = system: E. coli GC 2232; assay: MIC, broth microdilution; settings: Escherichia coli, GC2232, E. coli GC 2232
[8] = system: S. aureus GC 4536; assay: MIC, broth microdilution; settings: Staphylococcus aureus, GC4536, S. aureus GC 4536
[9] = system: S. typhimurium GC 2172; assay: MIC, broth microdilution; settings: Salmonella enterica, TYPHIMURIUM, S. typhimurium GC 2172
[10] = system: Staph.; assay: Range of MIC for Staph. strains, including MRSA; settings: Staphylococcus aureus, MRSA
[11] = system: S. pyogenes GC 4563; assay: MIC, broth microdilution; settings: Streptococcus pyogenes, GC4563, S. pyogenes GC 4563
[12] = system: E. coli; assay: Range of MIC for E. coli strains; settings: Escherichia coli
[13] = system: S. aureus GC 6466; assay: MIC, broth microdilution; settings: Staphylococcus aureus, GC6466, S. aureus GC 6466
Experimental: Antimicrobial susceptibility testing. The in vitro activities of the antibiotics are determined by the broth microdilution method as recommended by the National Committee for Clinical Laboratory Standards (NCCLS) (1). Mueller-Hinton II broth (MHBII)(BBL Cockeysville, Md.) is the medium employed in the testing procedures. Microtiter plates containing serial dilutions of each antimicrobial agent are inoculated with each organism to yield the appropriate density (10^5 CFU/ml) in a 100 μl final volume. The plates are incubated for 18-22 hours at 35° C. in ambient air. […] Standard Pharmacological Test Procedures
Presented in Tables I-XIII are representative compounds of Formula I which were evaluated against a panel of 40 selected gram-positive and gram-negative bacteria strains by pre-incubation in water, mouse serum or human serum. Representative compounds were first incubated in mouse serum for an hour prior to the in vitro testing against a panel of selected gram-positive and gram-negative bacteria strains. All compounds were also pre-incubated in water for an hour prior to testing as control. Representative compounds of Formula I were incubated in human serum prior to MIC determination.

[14] = system: E. coli GC 2236; assay: MIC, broth microdilution; settings: Escherichia coli, GC2236, E. coli GC 2236
[15] = system: E. faecalis GC 2242; assay: MIC, broth microdilution; settings: Enterococcus faecalis, GC2242, E. faecalis GC 2242
[16] = system: S. pneumoniae+ GC 4465; assay: MIC, broth microdilution; settings: Streptococcus pneumoniae, S. pneumoniae+ GC 4465
Experimental: Antimicrobial susceptibility testing. The in vitro activities of the antibiotics are determined by the broth microdilution method as recommended by the National Committee for Clinical Laboratory Standards (NCCLS) (1). Mueller-Hinton II broth (MHBII)(BBL Cockeysville, Md.) is the medium employed in the testing procedures. Microtiter plates containing serial dilutions of each antimicrobial agent are inoculated with each organism to yield the appropriate density (10^5 CFU/ml) in a 100 μl final volume. The plates are incubated for 18-22 hours at 35° C. in ambient air.
Representative compounds were first incubated in mouse serum for an hour prior to the in vitro testing against a panel of selected gram-positive and gram-negative bacteria strains. All compounds were also pre-incubated in water for an hour prior to testing as control.

[17] = system: Staph. aureus Smith; assay: In vivo activity (oral, iv; ED50) against Staph. aureus Smith in mice
Experimental: Representative examples of compounds of Formula I were tested for the oral efficacy using S. aureus Smith in mice.

[18] = system: E. coli GC 2235; assay: MIC, broth microdilution; settings: Escherichia coli, GC2235, E. coli GC 2235
[19] = system: S. aureus GC 2216; assay: MIC, broth microdilution; settings: Staphylococcus aureus, GC2216, S. aureus GC 2216
[20] = system: E. faecalis GC 4555; assay: MIC, broth microdilution; settings: Enterococcus faecalis, GC4555, E. faecalis GC 4555

## CCCN(CC(=O)Nc1cc(N(C)C)c2c(c1O)C(=O)C1=C(O)[C@]3(O)C(=O)C(C(N)=O)=C(O)[C@@H](N(C)C)[C@@H]3C[C@@H]1C2)C(=O)OCOC(=O)c1ccc(C)cc1 [Example 5, ({[(2-{[(5aR,6aS,7S,10aS)-9-(aminocarbonyl)-4,7-bis(dimethylamino)-1,8,10a,11-tetrahydroxy-10,12-dioxo-5,5a,6,6a,7,10,10a,12-octahydrotetracen-2-yl]amino}-2-oxoethyl)(propyl)amino]carbonyl}oxy)methyl 4-methylbenzoate]
[1]; Mouse Serum pre-incubation
  MIC: < 0.06 µg/mL
[1]; Water pre-incubation
  MIC: 0.12 µg/mL (≈ 0.157 µM)
[2]; Mouse Serum pre-incubation
  MIC: 1 µg/mL (≈ 1.31 µM)
[2]; Water pre-incubation
  MIC: 32 µg/mL (≈ 41.9 µM)
[3]; Mouse Serum pre-incubation
  MIC: 0.5 µg/mL (≈ 0.655 µM)
[3]; Water pre-incubation
  MIC: 0.5 µg/mL (≈ 0.655 µM)
[4]; Mouse Serum pre-incubation
  MIC: 2 µg/mL (≈ 2.62 µM)
[4]; Water pre-incubation
  MIC: 64 µg/mL (≈ 83.8 µM)
[5]; Mouse Serum pre-incubation
  MIC: 2 µg/mL (≈ 2.62 µM)
[5]; Water pre-incubation
  MIC: 32 µg/mL (≈ 41.9 µM)
[6]; Mouse Serum pre-incubation
  MIC: 1 µg/mL (≈ 1.31 µM)
[6]; Water pre-incubation
  MIC: 2 µg/mL (≈ 2.62 µM)
[7]; Mouse Serum pre-incubation
  MIC: 2 µg/mL (≈ 2.62 µM)
[7]; Water pre-incubation
  MIC: 32 µg/mL (≈ 41.9 µM)
[8]; Mouse Serum pre-incubation
  MIC: 1 µg/mL (≈ 1.31 µM)
[8]; Water pre-incubation
  MIC: 1 µg/mL (≈ 1.31 µM)
[9]; Mouse Serum pre-incubation
  MIC: 8 µg/mL (≈ 10.5 µM)
[9]; Water pre-incubation
  MIC: > 64 µg/mL
[10]; read-out: Range of MIC, Staph (Mouse Serum)
  MIC: 0.25 to 2 µg/mL (≈ 0.327 to 2.62 µM)
[10]; read-out: Range of MIC, Staph (Water)
  MIC: 0.5 to 4 µg/mL (≈ 0.655 to 5.24 µM)
[10]; read-out: Range of MIC, Staph. (mouse serum)
  MIC: 0.25 to 2 µg/mL (≈ 0.327 to 2.62 µM)
[10]; read-out: Range of MIC, Staph. (water)
  MIC: 0.5 to 4 µg/mL (≈ 0.655 to 5.24 µM)
[11]; Mouse Serum pre-incubation
  MIC: 0.12 µg/mL (≈ 0.157 µM)
[11]; Water pre-incubation
  MIC: 0.25 µg/mL (≈ 0.327 µM)
[12]; 20 h, read-out: Range of MIC, E. coli (Mouse Serum)
  MIC: 1 to 2 µg/mL (≈ 1.31 to 2.62 µM)
[12]; read-out: Range of MIC, E. coli (Water)
  MIC: 16 to 64 µg/mL (≈ 20.9 to 83.8 µM)
[12]; read-out: Range of MIC, E. coli (mouse serum)
  MIC: 1 to 2 µg/mL (≈ 1.31 to 2.62 µM)
[12]; read-out: Range of MIC, E. coli (water)
  MIC: 16 to 64 µg/mL (≈ 20.9 to 83.8 µM)
[13]; Mouse Serum pre-incubation
  MIC: 0.25 µg/mL (≈ 0.327 µM)
[13]; Water pre-incubation
  MIC: 0.5 µg/mL (≈ 0.655 µM)
[14]; Mouse Serum pre-incubation
  MIC: 2 µg/mL (≈ 2.62 µM)
[14]; Water pre-incubation
  MIC: 16 µg/mL (≈ 20.9 µM)
[15]; Mouse Serum pre-incubation
  MIC: 1 µg/mL (≈ 1.31 µM)
[15]; Water pre-incubation
  MIC: 2 µg/mL (≈ 2.62 µM)
[16]; Mouse Serum pre-incubation
  MIC: 2 µg/mL (≈ 2.62 µM)
[16]; Water pre-incubation
  MIC: 4 µg/mL (≈ 5.24 µM)
[17]; Staphylococcus aureus, in Mus musculus, iv, read-out: ED50 SIV (Staph aureus Smith)
  ED50: 0.5 mg/kg
[17]; Staphylococcus aureus, in Mus musculus, po, read-out: ED50 SOD (Staph aureus Smith)
  ED50: 8.51 mg/kg
[17]; Staphylococcus aureus, in Mus musculus, po, read-out: ED50 Staph Smith SOD
  ED50: 8.51 mg/kg
[17]; iv, read-out: ED50 Staph Smith SIV
  ED50: 0.5 mg/kg
[18]; Mouse Serum pre-incubation
  MIC: 1 µg/mL (≈ 1.31 µM)
[18]; Water pre-incubation
  MIC: 16 µg/mL (≈ 20.9 µM)
[19]; Mouse Serum pre-incubation
  MIC: 0.5 µg/mL (≈ 0.655 µM)
[19]; Water pre-incubation
  MIC: 2 µg/mL (≈ 2.62 µM)
[20]; Mouse Serum pre-incubation
  MIC: 1 µg/mL (≈ 1.31 µM)
[20]; Water pre-incubation
  MIC: 4 µg/mL (≈ 5.24 µM)
